Data on three molecules can be found in patent US6525057B2, “Sustained release ranolazine formulations” (CV Therapeutics, Inc., priority 1998, dated 2003).

A short description of series [1]: Example 8: Day 5 pharmacokinetics of racemic ranolazine and enantiomers, SR 1500 and 2000 mg bid. The settings on record: for Cave / Cmin / Degree of fluctuation / Tmax / Cmax / AUC: Day 5, 1500 mg SR bid (racemic, Example 2D); for Tmax / Cmax / AUC: male, human, plasma, oral; for Tmax: 1500 mg, read-out: Median tmax; for AUC: read-out: AUC96-108h; for differences in the pharmacokinetic parameters of the enantiomers: multiple dosing with the SR formulation. It is filed as in vivo, human. The procedure:
This Example evaluated the safety and tolerability of administering racemic ranolazine free base formulations as in Example 2D. The individual and mean concentrations of racemic ranolazine and its enantiomers, (R)-(+)-N-(2,6-dimethylphenyl)-4-[2-hydroxy-3-(2-methoxyphenoxy)-propyl]-1-piperazineacetamide, (S)-(−)-N-(2,6-dimethylphenyl)-4-[2-hydroxy-3-(2-methoxyphenoxy)-propyl]-1-piperazineacetamide in human plasma were also determined.
The study was performed with ascending doses of sustained release ranolazine dosage forms. Before and at intervals during and after the dosing period, blood samples were drawn for ranolazine assay and blood pressure, heart rate, ECG and symptoms were monitored throughout. Data summaries were reviewed after each phase before proceeding to the next phase of the study.
Eight subjects, all healthy male volunteers aged between 18 and 40 entered and all completed the study and were available for pharmacokinetic and safety analysis. The subjects were each given doses of the various types of ranolazine free base in the form of sustained release tablets including 500 mg and 750 mg tablets or with matching placebo as necessary (2×750 mg size plus 1×500 mg size) to make unit oral doses of 1500 and 2000 mg.
In each phase: one dose bid for four days with a single dose on Day 5. On day 5 each volunteer underwent a full pharmacokinetic profile including supine and erect blood pressure (BP) and heart rate, ECG data, adverse events, clinical chemistry and hematology results, urinalysis results.
These tests were made using two-sided t-tests with estimates of variability from the ANOVA models. Steady state was also assessed by comparing means for C48h, C72h and C96h using a mixed effects ANOVA model and untransformed and log, transformed data. For hemodynamic parameters, Day 1 pre-dose treatment means and Day 5 data were compared across treatments via two-sided t-tests using estimates of variability from mixed effects ANOVA models. Ninety and 95% confidence intervals were calculated for the treatment comparisons. No adjustments were made for multiple comparisons.

The conditions of series [2]: cited from earlier work; for mean peak plasma concentration of ranolazine free base: 1 hour after dose; for mean trough plasma concentration: 8 hours after dose.
Series [3] concerns patients with stable angina pectoris. To be noted: 30, 60 and 120 mg tid; cited from earlier work.

Read-outs that look alike come from different tables or passages of the source.

As a reminder, the Tmax is the time at which the peak concentration occurs. Usually Cmax stands for the highest concentration seen after dosing. As for `COc1ccccc1OC[C@H](O)CN1CCN(CC(=O)Nc2c(C)cccc2C)CC1` [(+)R ranolazine, (R)-(+)-N-(2,6-dimethylphenyl)-4-[2-hydroxy-3-(2-methoxyphenoxy)-propyl]-1-piperazineacetamide], in series [1], the Cave is 2144 ± 1115 ng/mL, the Cmin was found to be 1436 ± 1046 ng/mL, the Degree of fluctuation turned out to be 0.833 and the Tmax was 4 h. Also, in series [1], the maximum concentration (Cmax) is 2910 ± 1310 ng/mL, the AUC was found to be 25700 ng·h/mL and the “differences in the pharmacokinetic parameters of the enantiomers” value is recorded as “no differences”.

With `COc1ccccc1OC[C@@H](O)CN1CCN(CC(=O)Nc2c(C)cccc2C)CC1` [(−)S ranolazine, (S)-(−)-N-(2,6-dimethylphenyl)-4-[2-hydroxy-3-(2-methoxyphenoxy)-propyl]-1-piperazineacetamide], in series [1], the Cave came to 2201 ± 1237 ng/mL, the Cmin was found to be 1514 ± 1201 ng/mL, the Degree of fluctuation came to 0.824 and the Tmax came to 4 h. For the same molecule, in series [1], the Cmax came out at 2940 ± 1430 ng/mL, the AUC is 26400 ng·h/mL and the “differences in the pharmacokinetic parameters of the enantiomers” value is “no differences”.

Consider `COc1ccccc1OCC(O)CN1CCN(CC(=O)Nc2c(C)cccc2C)CC1` (stereo not drawn) [ranolazine .2HCl], for which the figures for the “mean peak plasma concentration of ranolazine free base” value in series [2] (30 mg tid IR), in series [2] (60 mg tid IR) and in series [2] (120 mg tid IR) were 94 ng/mL, 219 ng/mL and 510 ng/mL, respectively. Also, the results for the “mean trough plasma concentration” value in series [2] (30 mg tid IR), in series [2] (60 mg tid IR) and in series [2] (120 mg tid IR) were 18 ng/mL, 37 ng/mL and 90 ng/mL, respectively. In addition, the “therapy compared with placebo” value in series [3] is “not superior to placebo”.
